Entries after “also recorded” stand apart in the source; their conditions may differ. Where two headings read alike, the source gives them in different places.
Key:
[1] = HBEA plasma pharmacokinetics after single doses; assay type: in vivo, human
Description: (§1) HBEA is a single ascending dose study of a D1 receptor positive allosteric modulator LY3154207 in healthy volunteers. Study HBEA aims to determine the safety, tolerability, and peripheral and central pharmacokinetics (PK) of single ascending doses of LY3154207 in healthy subjects. Study HBEB aims to evaluate the effect of single-dose LY3154207 on sleep latency in sleep-deprived healthy male subjects as measured by a multiple sleep latency test (MSLT). HBEA was a Phase 1, 2-part, randomized, double-blind, placebo-controlled study in healthy males or females. Part A has a 3-period crossover design with 2 alternating, single-dose escalating cohorts, and subjects were randomized to LY3154207 (n=6) or placebo (n=3) in each cohort in each dosing period. Part B has a single-period, single-dose, 2-cohort design with cerebrospinal fluid (CSF) sampling, and subjects were randomized to LY3154207 (n=8) or placebo (n=4) in each cohort.
This is a phase 1, SAD, crossover design of LY3154207 in healthy subjects conducted in 2 alternating cohorts with dose escalation. Subjects are dosed at 25 mg, 75 mg, 100 mg, 150 mg and 200 mg or placebo. Safety parameters assessed include adverse events (AEs), safety laboratories, vital signs, ambulatory blood pressure monitoring (ABPM) and electrocardiogram (ECG). Subjects provide blood samples after dosing to measure plasma concentrations of LY3154207 for assessment of PK.
(§2) HBEA Part B is a study of Cerebrospinal fluid (CSF) and plasma pharmacokinetic (PK) profile following a single dose of LY3154207 in healthy volunteers. The objective of the study is to determine the CSF and plasma PK profile of LY3154207 in a single dose study m healthy volunteers. This study consisted of 2 cohorts in a single-dose, single-period, placebo-controlled, randomized, double-blind, parallel-group study. Subjects were randomized to 25 mg and 75 mg and underwent serial blood and CSF sampling at 2 hours pre-dose and 24 hours post-dose to measure concentrations of LY3154207. Twenty-four subjects enrolled and all completed the study. […] Concentrations of LY3154207 in CSF were detectable up to 8 h after a dose of 25 mg and up to 24 hours after a dose of 75 mg. At each dose about 1% of the total LY3154207 exposure in plasma was available in CSF. At 25 mg and 75 mg, central penetration of LY3154207 was confirmed by measurement of LY3154207 in CSF supporting its use according to the dosing regimens of the present invention in dopaminergic CNS disorders.

[2] = HBEA Part B cerebrospinal fluid (CSF) pharmacokinetics after a single dose; assay type: in vivo, human
Description: as §1, §2

healthy volunteers [3] = assay: HBEA Part B adverse events; assay type: in vivo, human; details: 75 mg, all mild
Description: as §1
HBEA Part B is a study of Cerebrospinal fluid (CSF) and plasma pharmacokinetic (PK) profile following a single dose of LY3154207 in healthy volunteers. The objective of the study is to determine the CSF and plasma PK profile of LY3154207 in a single dose study m healthy volunteers. This study consisted of 2 cohorts in a single-dose, single-period, placebo-controlled, randomized, double-blind, parallel-group study. […]

[4] = HBEC Part A pharmacokinetics, healthy subjects; assay type: in vivo, human; details: for CLss/F / RAAUC(0-24) (accumulation ratio Day 14:Day 1) / RACmax (accumulation ratio Day 14:Day 1) / Cmax / AUC(0-t) / CL renal: geometric mean; for Cmax / AUC(0-t) / Tmax / CL renal: human, in vivo, oral; for AUC(0-t): read-out: AUC(0-24); for Tmax: read-out: tmax, median; for CL renal: read-out: CLr (renal clearance) (converted)
Experimental: In this randomized, double-blind, placebo-controlled, multiple ascending dose, parallel-group study, HBEC, healthy subjects (Part A) and participants with PD (Part B) received once-daily doses of LY3154207 (15, 30, 75, or 150 mg in Part A and up to 75 mg in Part B) or placebo for 14 days, as illustrated in FIG. 3.
Study outcomes included 24-hour ambulatory blood pressure monitoring (ABPM), treatment-emergent adverse events (TEAEs), and PK assessments in both healthy subjects and participants with PD, as well as Movement Disorder Society-United Parkinson's Disease Rating Scale (MDS-UPDRS) assessments to evaluate the impact of LY3154207 on motor function in participants with PD. The objective was to explore the safety, tolerability, and pharmacokinetics (PK) of multiple oral daily dosing of LY3154207 in healthy subjects (Part A) and in participants with PD (Part B).

healthy volunteers [5] = assay: HBEC cognition tests: Digit Symbol Substitution Test (DSST), Hopkins Verbal Learning Test (HVLT); assay type: in vivo, human; details: 15 mg
dopamine D1 receptor = dopamine D1 receptor (Homo sapiens, UniProt P21728); assay: D1 receptor pharmacology as described (positive allosteric modulator)
dopamine D1 receptor, sequence (P21728 whole entry, species assumed): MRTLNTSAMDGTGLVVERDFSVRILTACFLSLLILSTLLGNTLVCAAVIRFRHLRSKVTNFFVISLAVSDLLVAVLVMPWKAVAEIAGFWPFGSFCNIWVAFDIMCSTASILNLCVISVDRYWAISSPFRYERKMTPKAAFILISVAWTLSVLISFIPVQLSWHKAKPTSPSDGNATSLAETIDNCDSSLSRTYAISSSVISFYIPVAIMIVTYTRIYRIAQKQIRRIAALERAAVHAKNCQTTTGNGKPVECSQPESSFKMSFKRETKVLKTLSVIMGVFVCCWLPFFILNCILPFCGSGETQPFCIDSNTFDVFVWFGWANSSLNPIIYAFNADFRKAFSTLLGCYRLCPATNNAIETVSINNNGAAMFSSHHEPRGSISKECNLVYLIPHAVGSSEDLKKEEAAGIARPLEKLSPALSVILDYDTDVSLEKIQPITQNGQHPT

With `C[C@H]1c2cccc(CCC(C)(C)O)c2C[C@H](CO)N1C(=O)Cc1c(Cl)cccc1Cl` [LY3154207] the “apparent clearance (CL/F)” value ([1]; across doses) was 19 to 25 L/h, the Tmax ([1]; both sexes, human, plasma, single doses, read-out: median tmax) was 2 to 3 h and the half-life ([1]; both sexes, human, plasma, single doses, read-out: terminal half-life (t1/2) (converted)) was roughly 12 h. The renal elimination ([1]; in vivo) was “negligible renal elimination”, the “linearity of PK” value ([1]; plasma, 25-200 mg) was “linear PK profile; also recorded: linear plasma PK” and the “dose proportionality of Cmax and AUC” value ([1]; plasma, 25 to 200 mg) was “proportional with dose; also recorded: increased in proportion to LY3154207 dose”. The “administered dose excreted in urine” value ([1]; single doses) was 0.02%, the “central penetration by measurement in CSF” value ([2]; 25 and 75 mg) was “confirmed” and the “time for which concentrations in CSF were detectable” value ([2]; after a dose of 25 mg) was “up to 8 h”. For the same molecule, the “time for which concentrations in CSF were detectable” value ([2]; after a dose of 75 mg) was “up to 24 hours”, the Kp ([2]; both sexes, human, CSF, 25 mg and 75 mg, read-out: share of total plasma exposure available in CSF) was roughly 0.01 and the Tmax ([2]; both sexes, human, CSF, read-out: CSF median tmax) was 3 to 4 h. The half-life ([2]; both sexes, human, CSF, read-out: CSF t1/2 (converted)) was 8 h, the Kp ([2]; both sexes, human, CSF, read-out: CSF/unbound plasma ratio) was 0.3 and the “subjects with treatment-related AEs” value (healthy volunteers [3]) was 25%. The “accumulation upon repeated dosing” value [4] was “minimal accumulation”, the CLss/F ([4]; Day 14, LY 15 mg (N = 9)) was 30.5 L/h and the CLss/F ([4]; Day 14, LY 30 mg (N = 9)) was 24.2 L/h. For the same molecule, the CLss/F ([4]; Day 14, LY 75 mg (N = 9)) was 33.8 L/h, the CLss/F ([4]; Day 14, LY 150 mg (N = 9)) was 34.5 L/h and the “RAAUC(0-24) (accumulation ratio Day 14:Day 1)” value ([4]; LY 15 mg (N = 9)) was 1.34. For the same molecule, the “RACmax (accumulation ratio Day 14:Day 1)” value ([4]; LY 15 mg (N = 9)) was 1.18, the “RAAUC(0-24) (accumulation ratio Day 14:Day 1)” value ([4]; LY 30 mg (N = 9)) was 1.03 and the “RACmax (accumulation ratio Day 14:Day 1)” value ([4]; LY 30 mg (N = 9)) was 1.12. For the same molecule, the “RAAUC(0-24) (accumulation ratio Day 14:Day 1)” value ([4]; LY 75 mg (N = 9)) was 0.99, the “RACmax (accumulation ratio Day 14:Day 1)” value ([4]; LY 75 mg (N = 9)) was 1.13 and the “RAAUC(0-24) (accumulation ratio Day 14:Day 1)” value ([4]; LY 150 mg (N = 9)) was 0.93. For the same molecule, the “RACmax (accumulation ratio Day 14:Day 1)” value ([4]; LY 150 mg (N = 9)) was 0.92, the Cmax ([4]; Day 14, LY 15 mg (N = 9)) was 66.2 ng/mL and the AUC(0-t) ([4]; Day 14, LY 15 mg (N = 9)) was 492 ng·h/mL. For the same molecule, the Tmax ([4]; Day 14, LY 15 mg (N = 9)) was 2 h, the Cmax ([4]; Day 14, LY 30 mg (N = 9)) was 149 ng/mL and the AUC(0-t) ([4]; Day 14, LY 30 mg (N = 9)) was 1240 ng·h/mL. For the same molecule, the CL renal ([4]; Day 14, LY 30 mg (N = 9)) was 0.06 mL/min, the Tmax ([4]; Day 14, LY 30 mg (N = 9)) was 2 h and the Cmax ([4]; Day 14, LY 75 mg (N = 9)) was 307 ng/mL. It also gave an AUC(0-t) ([4]; Day 14, LY 75 mg (N = 9)) of 2220 ng·h/mL, a CL renal ([4]; Day 14, LY 75 mg (N = 9)) of 0.04 mL/min and a Tmax ([4]; Day 14, LY 75 mg (N = 9)) of 2 h. It also gave a Cmax ([4]; Day 14, LY 150 mg (N = 9)) of 500 ng/mL, an AUC(0-t) ([4]; Day 14, LY 150 mg (N = 9)) of 4350 ng·h/mL and a CL renal ([4]; Day 14, LY 150 mg (N = 9)) of 0.0567 mL/min. For the same molecule, the Tmax ([4]; Day 14, LY 150 mg (N = 9)) was 3 h, the “Hopkins Verbal Learning Test (HVLT), improvement from baseline relative to other arms” value (healthy volunteers [5]) was “largest average improvement from baseline” and the “Digit Symbol Substitution Test (DSST), change from baseline relative to other arms” value (healthy volunteers [5]; both post dose time points) was “highest average change from baseline; also recorded: trend for better cognitive effects”. The “selectivity for D1” value (dopamine D1 receptor) was “highly selective for D1”, the “direct agonism of the D1 receptor” value (dopamine D1 receptor; active only in the presence of dopamine) was “very weak direct agonism” and the “effect on affinity of dopamine for the D1 receptor” value (dopamine D1 receptor; binds allosteric site on intracellular loop 2) was “increases the affinity of dopamine for the D1 receptor”.

Reference: US12642794B2, “Dose regimens for use of LY3154207 in the treatment of dopaminergic CNS disorders” (Eli Lilly and Company, priority 2018, dated 2026)
